According to patent publication US11992497B2 (priority 2021, dated 2024):

Columns and labels:
rUGT2B7 = target: T1, rUGT2B7 (Homo sapiens, UniProt P16662); test: Inhibition of CBG glucuronidation by Compound 1; format: biochemical; settings: for CBG detected, Percent of control / CBG glucuronide formed, Percent of control: rUGT2B7; for CBG detected / CBG glucuronide formed: rUGT2B7, 5 min
T1 sequence (P16662 24-529): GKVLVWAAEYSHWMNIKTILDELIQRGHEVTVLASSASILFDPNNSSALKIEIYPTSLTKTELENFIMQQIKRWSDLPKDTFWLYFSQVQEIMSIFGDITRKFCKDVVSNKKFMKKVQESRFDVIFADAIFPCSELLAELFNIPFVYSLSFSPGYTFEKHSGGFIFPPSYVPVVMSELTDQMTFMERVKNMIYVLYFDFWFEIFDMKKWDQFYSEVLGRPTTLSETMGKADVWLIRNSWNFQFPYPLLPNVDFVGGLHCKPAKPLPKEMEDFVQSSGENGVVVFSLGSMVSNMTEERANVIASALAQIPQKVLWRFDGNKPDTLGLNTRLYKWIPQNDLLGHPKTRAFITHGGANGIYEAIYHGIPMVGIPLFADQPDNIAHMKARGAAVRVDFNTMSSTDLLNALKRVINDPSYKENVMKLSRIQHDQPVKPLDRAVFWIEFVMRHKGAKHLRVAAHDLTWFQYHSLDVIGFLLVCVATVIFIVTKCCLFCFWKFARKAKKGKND
Description: (§1) The purpose of this experiment was to determine if Compound 1 can inhibit the glucuronidation of CBG, as both are substrates for the two major isoforms responsible for CBG glucuronidation.
(§2) The ability of Compound 1 to inhibit the metabolism of CBG by UGT1A9 and UGT2B7 enzymes was investigated to ascertain the ICso values for direct inhibition. The incubation conditions (substrate concentration, incubation time and protein concentration) were determined in Part 2 of the protocol such that CBG metabolism remains near initial rate conditions (e.g., 20-30% substrate loss).
(§3) Preliminary experiments were conducted in Part I of the protocol, first to establish the HPLC/MS/MS bioanalytical methods for CBG and CBG glucuronide. […] The second set of preliminary experiments (Part 2), as mentioned, were conducted to optimize the incubation conditions as described above. Incubations (at 37 C) contained Tris-HCl buffer (100 mM, pH 7.7), MgCl2 (10 mM), EDTA (1 mM, pH 7.4) and UDP-glucuronic acid (UDPGA, 10 mM). CBG was added to each incubation in DMSO such that the final percent of DMSO was 1% v/v, or less. Reactions were terminated by the addition of an equal volume of stop reagent, acetonitrile containing an internal standard. The samples were centrifuged (e.g., 920 RCF for 10 minutes at 10° C.), and the supernatant fractions were analyzed by LC-MS/MS to determine the amount of CBG remaining and formation of one metabolite (CBG glucuronide).
(§4) To examine its ability to act as a direct inhibitor of the above listed enzymes, Compound 1 was be added to recombinant human UGT enzyme together with CBG. Reactions were initiated with UDPGA and were carried out in duplicate. For all assays, reactions were terminated by the addition of acetonitrile with or without 2% v/v formic acid, including the internal standard.
(§5) Authentic metabolite reference standards were used for quantitation of the probe substrate metabolites and as internal standards. Based on the information obtained in the Part 2 experiments, the following table summarizes the experiments performed, assessing the inhibitory effects of Compound 1 was conducted as follows:
(§6) The amounts of CBG present at the end of the incubation periods was determined. For inhibition to have occurred, the amounts of CBG present at the end of the incubation period needed to increase, and the amounts of glucuronide formed needed to decrease.

rUGT1A9 = target: T2, rUGT1A9 (Homo sapiens, UniProt O60656); test: Inhibition of CBG glucuronidation by Compound 1; format: biochemical; settings: for CBG detected, Percent of control / CBG glucuronide formed, Percent of control: rUGT1A9; for CBG detected / CBG glucuronide formed: rUGT1A9, 4 min
T2 sequence (O60656 26-530): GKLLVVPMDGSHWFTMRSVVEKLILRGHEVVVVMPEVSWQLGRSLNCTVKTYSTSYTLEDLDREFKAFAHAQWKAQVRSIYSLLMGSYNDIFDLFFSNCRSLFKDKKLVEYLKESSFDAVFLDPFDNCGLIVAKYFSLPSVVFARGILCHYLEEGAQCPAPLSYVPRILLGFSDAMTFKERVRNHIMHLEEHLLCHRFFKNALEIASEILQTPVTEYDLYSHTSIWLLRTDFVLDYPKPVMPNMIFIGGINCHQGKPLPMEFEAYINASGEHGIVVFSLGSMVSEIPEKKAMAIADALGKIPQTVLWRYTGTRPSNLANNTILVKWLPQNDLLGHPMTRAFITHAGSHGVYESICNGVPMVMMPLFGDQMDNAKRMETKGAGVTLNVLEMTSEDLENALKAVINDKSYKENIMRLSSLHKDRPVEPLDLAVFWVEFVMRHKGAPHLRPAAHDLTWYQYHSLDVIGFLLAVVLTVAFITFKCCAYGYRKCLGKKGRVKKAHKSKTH
Description: as §1, §2, §3, §4, §5, §6

CCCCCc1cc(O)c(C/C=C(\C)CCC=C(C)C)c(OC)c1 [Compound 1, (E)-2-(3,7-dimethylocta-2,6-dien-1-yl)-3-methoxy-5-pentylphenol] was tested, and the “CBG detected, Percent of control” value (rUGT2B7; 10 μM CBG + 0.01 μM Compound 1) was 103% of control, the “CBG glucuronide formed, Percent of control” value (rUGT2B7; 10 μM CBG + 0.01 μM Compound 1) was 104% of control and the CBG detected (rUGT2B7; 10 μM CBG + 0.01 μM Compound 1) was 1370 pmol. The CBG glucuronide formed (rUGT2B7; 10 μM CBG + 0.01 μM Compound 1) was 260000 area ratio, the “CBG detected, Percent of control” value (rUGT2B7; 10 μM CBG + 0.03 μM Compound 1) was 109% of control and the “CBG glucuronide formed, Percent of control” value (rUGT2B7; 10 μM CBG + 0.03 μM Compound 1) was 101% of control. The CBG detected (rUGT2B7; 10 μM CBG + 0.03 μM Compound 1) was 1460 pmol, the CBG glucuronide formed (rUGT2B7; 10 μM CBG + 0.03 μM Compound 1) was 252000 area ratio and the “CBG detected, Percent of control” value (rUGT2B7; 10 μM CBG + 0.1 μM Compound 1) was 106% of control. The “CBG glucuronide formed, Percent of control” value (rUGT2B7; 10 μM CBG + 0.1 μM Compound 1) was 103% of control, the CBG detected (rUGT2B7; 10 μM CBG + 0.1 μM Compound 1) was 1410 pmol and the CBG glucuronide formed (rUGT2B7; 10 μM CBG + 0.1 μM Compound 1) was 257000 area ratio. The “CBG detected, Percent of control” value (rUGT2B7; 10 μM CBG + 0.3 μM Compound 1) was 109% of control, the “CBG glucuronide formed, Percent of control” value (rUGT2B7; 10 μM CBG + 0.3 μM Compound 1) was 105% of control and the CBG detected (rUGT2B7; 10 μM CBG + 0.3 μM Compound 1) was 1450 pmol. The CBG glucuronide formed (rUGT2B7; 10 μM CBG + 0.3 μM Compound 1) was 262000 area ratio, the “CBG detected, Percent of control” value (rUGT2B7; 10 μM CBG + 1 μM Compound 1) was 109% of control and the “CBG glucuronide formed, Percent of control” value (rUGT2B7; 10 μM CBG + 1 μM Compound 1) was 102% of control. The CBG detected (rUGT2B7; 10 μM CBG + 1 μM Compound 1) was 1460 pmol, the CBG glucuronide formed (rUGT2B7; 10 μM CBG + 1 μM Compound 1) was 253000 area ratio and the “CBG detected, Percent of control” value (rUGT2B7; 10 μM CBG + 3 μM Compound 1) was 108% of control. The “CBG glucuronide formed, Percent of control” value (rUGT2B7; 10 μM CBG + 3 μM Compound 1) was 101% of control, the CBG detected (rUGT2B7; 10 μM CBG + 3 μM Compound 1) was 1440 pmol and the CBG glucuronide formed (rUGT2B7; 10 μM CBG + 3 μM Compound 1) was 252000 area ratio. The “CBG detected, Percent of control” value (rUGT2B7; 10 μM CBG + 10 μM Compound 1) was 111% of control, the “CBG glucuronide formed, Percent of control” value (rUGT2B7; 10 μM CBG + 10 μM Compound 1) was 96.0% of control and the CBG detected (rUGT2B7; 10 μM CBG + 10 μM Compound 1) was 1470 pmol. For the same molecule, the CBG glucuronide formed (rUGT2B7; 10 μM CBG + 10 μM Compound 1) was 239000 area ratio, the “inhibition of the conversion of CBG to a glucuronide (in words)” value (rUGT2B7; UGT2B7, 0.01-10 μM Compound 1) was “not an effective inhibitor” and the “CBG detected, Percent of control” value (rUGT1A9; 10 μM CBG + 0.01 μM Compound 1) was 109% of control. For the same molecule, the “CBG glucuronide formed, Percent of control” value (rUGT1A9; 10 μM CBG + 0.01 μM Compound 1) was 94.4% of control, the CBG detected (rUGT1A9; 10 μM CBG + 0.01 μM Compound 1) was 1250 pmol and the CBG glucuronide formed (rUGT1A9; 10 μM CBG + 0.01 μM Compound 1) was 350000 area ratio. The “CBG detected, Percent of control” value (rUGT1A9; 10 μM CBG + 0.03 μM Compound 1) was 110% of control, the “CBG glucuronide formed, Percent of control” value (rUGT1A9; 10 μM CBG + 0.03 μM Compound 1) was 97.1% of control and the CBG detected (rUGT1A9; 10 μM CBG + 0.03 μM Compound 1) was 1250 pmol. For the same molecule, the CBG glucuronide formed (rUGT1A9; 10 μM CBG + 0.03 μM Compound 1) was 360000 area ratio, the “CBG detected, Percent of control” value (rUGT1A9; 10 μM CBG + 0.1 μM Compound 1) was 112% of control and the “CBG glucuronide formed, Percent of control” value (rUGT1A9; 10 μM CBG + 0.1 μM Compound 1) was 92.0% of control. For the same molecule, the CBG detected (rUGT1A9; 10 μM CBG + 0.1 μM Compound 1) was 1280 pmol, the CBG glucuronide formed (rUGT1A9; 10 μM CBG + 0.1 μM Compound 1) was 341000 area ratio and the “CBG detected, Percent of control” value (rUGT1A9; 10 μM CBG + 0.3 μM Compound 1) was 114% of control. The “CBG glucuronide formed, Percent of control” value (rUGT1A9; 10 μM CBG + 0.3 μM Compound 1) was 94.4% of control, the CBG detected (rUGT1A9; 10 μM CBG + 0.3 μM Compound 1) was 1300 pmol and the CBG glucuronide formed (rUGT1A9; 10 μM CBG + 0.3 μM Compound 1) was 350000 area ratio. For the same molecule, the “CBG detected, Percent of control” value (rUGT1A9; 10 μM CBG + 1 μM Compound 1) was 106% of control, the “CBG glucuronide formed, Percent of control” value (rUGT1A9; 10 μM CBG + 1 μM Compound 1) was 92.6% of control and the CBG detected (rUGT1A9; 10 μM CBG + 1 μM Compound 1) was 1210 pmol. For the same molecule, the CBG glucuronide formed (rUGT1A9; 10 μM CBG + 1 μM Compound 1) was 343000 area ratio, the “CBG detected, Percent of control” value (rUGT1A9; 10 μM CBG + 3 μM Compound 1) was 105% of control and the “CBG glucuronide formed, Percent of control” value (rUGT1A9; 10 μM CBG + 3 μM Compound 1) was 93.6% of control. The CBG detected (rUGT1A9; 10 μM CBG + 3 μM Compound 1) was 1200 pmol, the CBG glucuronide formed (rUGT1A9; 10 μM CBG + 3 μM Compound 1) was 347000 area ratio and the “CBG detected, Percent of control” value (rUGT1A9; 10 μM CBG + 10 μM Compound 1) was 99.8% of control. The “CBG glucuronide formed, Percent of control” value (rUGT1A9; 10 μM CBG + 10 μM Compound 1) was 92.8% of control, the CBG detected (rUGT1A9; 10 μM CBG + 10 μM Compound 1) was 1140 pmol and the CBG glucuronide formed (rUGT1A9; 10 μM CBG + 10 μM Compound 1) was 344000 area ratio. The “inhibition of the conversion of CBG to a glucuronide (in words)” value (rUGT1A9; UGT1A9, 0.01-10 μM Compound 1) was “not an effective inhibitor”.
